Each structure is given as a SMILES string.

Our source for the LD50 values is patent US20190060337A1, “COMPOSITIONS COMPRISING BETA-GLUCOGALLIN AND THERAPEUTIC APPLICATIONS THEREOF IN CONTROLLED KINETICS OF CARBOHYDRATE BREAKDOWN AND MONOSACCHARIDE ABSORPTION” (priority 2017, published 2019).

This data set is described as follows: Toxicity (LD50). The conditions noted are these: in vivo.

As to `O=C(O[C@@H]1O[C@H](CO)[C@@H](O)[C@H](O)[C@H]1O)c1cc(O)c(O)c(O)c1` [β-glucogallin, 1-O-galloyl-β-D-glucose], the LD50 result is listed as “approx. 2000 mg/kg bodyweight”.
